Source: patent publication US5637619A, “Antitumor 2-aminocarbonyl-1, 2-bis(methylsulfonyl)-1-(substituted)hydrazines” (Yale University, priority 1995, dated 1997)
Read-outs that look alike come from different tables or passages of the source.

How the values were obtained:
glutathione reductase = settings: cited from earlier work
liver microsomal enzymes = settings: NADPH-dependent; cited from earlier work
thioredoxin reductase = settings: cited from earlier work
[1] = tested on: glutathione S-transferase mu isoenzymes; settings: human isoenzymes; cited from earlier work
[2] = tested on: glutathione S-transferase mu isoenzymes; settings: rat isoenzymes; cited from earlier work
[3] = tested on: LX-1 human lung carcinoma; assay: LX-1 human lung carcinoma xenograft, sc in athymic mice; format: in vivo, human tumor in athymic (nu/nu) mice; settings: 20 mg/kg per injection (optimum), iv every fourth day × 3
Experimental: (§1) The M5076 reticulum cell sarcoma was passaged biweekly by sc transfer of tumor fragments into C57BL/6 mice, and the M109 lung carcinoma was similarly passaged in BALB/c mice. The LX-1 human lung carcinoma was passaged sc every two to three weeks in BALB/c-background athymic (nu/nu) mice. For use in these systems, compound III was dissolved in: (a) 100% DMSO and administered by iv injection in a fixed volume of 10 microliters; or (b) DMSO diluted with saline to a final concentration of 10% DMSO and administered iv in a volume of 0.01 milliliter/g of body weight. […] Mitomycin C and cyclophosphamide were dissolved and administered in saline. BCNU and MeCCNU were dissolved in ethanol and diluted 1:9 (v/v) with water prior to administration.
(§2) Five mice per group were employed in experiments with the B16F10 melanoma, and 8 mice per group with the M5076 sarcoma, the M109 carcinoma and the LX-1 carcinoma. A minimum of two dose levels per compound were included in each evaluation and drug therapy was initiated 24 h after tumor implantation for the M5076 sarcoma and M109 carcinoma. In the LX-1 experiment, tumor bearing mice were selected and sorted into treatment and control groups on day 6 post-tumor implant such that all tumor weights ranged from 50-100 mg and median tumor weights per group were reasonably similar. Therapeutic results are presented in terms of: (a) increases in lifespan reflected by the relative median survival time (MST) of treated versus control groups (i.e., %T/C values), and by long-term survivors, and (b) primary tumor growth inhibition (i.e., T-C values) determined by calculating the relative median times for treated (T) and control untreated (C) mice to grow tumors of a 0.5 g size for the LX-1 carcinoma or a 1 g size for the murine neoplasms. Tumor weights were interchangeable with tumor size on the basis of 1 mm^3 =1 mg. […] The activity criterion for tumor inhibition was a delay in tumor growth consistent with one log10 cell kill (LCK). The absolute T-C value needed to attain this level of efficacy varied from experiment to experiment and depended upon the tumor volume doubling time of the control mice in each study. Treated mice dying prior to day 10 in the ip M109 experiment, or dying before their tumors achieved 0.5 g for the LX-1 carcinoma or 1 g in size for all other sc tumor models, were considered to have died from drug toxicity. Groups of mice with more than one death due to drug toxicity were not used in the evaluation of antitumor efficacy. Statistical evaluations of data were performed using Gehan's generalized Wilcoxan test (Gehan, Biometrika, 1965, 52, 203-233).
The human lung tumor, LX-1, xenografted sc in athymic mice, was also used to examine the antineoplastic potential of compound III. […]

ribonucleotide reductase = settings: cited from earlier work
[4] = tested on: M5076 reticulum cell sarcoma; assay: M5076 reticulum cell sarcoma, sc implanted; format: in vivo, C57BL/6 mice
Experimental: as §1, §2
Compound III was also evaluated against the M5076 reticulum cell sarcoma implanted sc. When administered iv at a level of 48 mg/kg per injection in 100% DMSO every other day for five days, compound III cured 6 out of 8 mice and consequently, no median time (T-C value) to reach 1 gram size tumors was expressed for this group. Tumor growth in mice receiving only 100% DMSO was indistinguishable from that of untreated control animals. 1-(2-Chloroethyl)-3-(4-methylcyclohexyl)-1-nitrosourea (MeCCNU) and BCNU were included in this experiment for comparison. The former achieved a maximum %T/C of 128 and a delay in tumor growth of 33.5 days at 16 mg/kg per injection administered iv every fourth day for three total injections, while BCNU, administered iv on the same treatment schedule, produced a %T/C in excess of 157, with 2 out of 8 cures, and a T-C of >62 days (data not shown).

[5] = tested on: NADPH:cytochrome P450 reductase; settings: cited from earlier work
[6] = tested on: mammary MX-1 human tumor xenografts; settings: subrenal capsule, athymic mice; cited from earlier work
[7] = tested on: colon CX-1 human tumor xenografts; settings: subrenal capsule, athymic mice; cited from earlier work
[8] = Body weight change / toxicity in L1210-bearing mice; format: in vivo, mice (CD2F1); settings: for Av. Wt. Change %: L1210-bearing mice
Experimental: (§3) Leukemia L1210 cells were obtained from the Frederick Cancer Research Facility, Division of Cancer Treatment Tumor Repository of the National Cancer Institute, and were maintained by serial passage in tissue culture. Every 8 weeks, tumor cells were injected intraperitoneally into five donor CD2 F1 mice 8- to 10- weeks of age and were allowed to grow for 7 days. The peritoneal fluid was withdrawn and the suspension was centrifuged for 5 min at 1600 g. The supernatant was decanted and 10^5 cells/mL were seeded into 10 mL of RPMI 1640 medium supplemented with 10% fetal bovine serum and 1% L-glutamine, and once again maintained in culture. To assay for antineoplastic activity, 0.1 mL of the cell suspension containing 10^5 L1210 leukemia cells was injected ip into each recipient mouse. Test compounds were administered over a wide range of dosage levels, beginning 24 h after tumor implantation, and continued once daily for 6 consecutive days. All drugs were administered ip as a solution in 100% dimethylsulfoxide (DMSO), in a volume not exceeding 0.025 mL. […] Mice were weighed during the course of the experiments, and the percentage change in body weight from onset to termination of therapy was used as an indication of drug toxicity. Determination of the sensitivity of neoplasms to these agents was based upon the prolongation of survival time afforded by the drug treatments.
(§4) ^a Administered ip once daily for six consecutive days, beginning 24 hours after tumor implantation, with 5-10 mice being used per group. ^b Average percent change in body weight from onset to termination of therapy. ^c % T/C=average survival time of treated/control mice×100; cures (>60-day survivors) are listed separately and are not included in this calculation.

B16F10 melanoma = assay: B16F10 melanoma, tumor growth delay in mice; format: in vivo, C57BL/6 mice; settings: 100% DMSO
Experimental: B16F10 melanoma cells were grown in vitro as monolayers in minimum essential medium with Hank's salts supplemented with 10% fetal bovine serum and 1% 200 mM L-glutamine solution. Solid tumors were produced in C57BL/6 female mice 12- to 14-weeks of age by the intradermal injection in the right flank of each mouse of 0.1 mL of a cell suspension containing 10^6 B16F10 cells/mL from freshly trypsinized cultures. After 10-12 days, animals bearing approximately 100 mm^3 tumors were treated ip with compound III or IV dissolved in 100% DMSO for 6 consecutive days, and tumor volumes were measured on alternate days until reaching 1000 mm^3.
as §2
In addition, both compounds III and IV were evaluated in 100% DMSO against the B16F10 melanoma implanted intradermally (id) in mice (Table III). In an initial experiment, compound IV produced a T-C of 15.5 days at a daily dosage level of 20 mg/kg administered once daily for six consecutive days beginning on day 10 post-implant. In the same experiment, using the same treatment schedule, a growth delay of 11 days was obtained with compound III. […] Thus, the aminocarbonyl component in this class of agents influences the magnitude of the antitumor effects obtained against the B16F10 melanoma.

L1210 leukemia = L1210 leukemia survival time in mice (ip implanted); format: in vivo, mice (CD2F1)
Experimental: as §3, §4

M109 lung carcinoma [9] = settings: as reported earlier (J. Med. Chem. 1993, 36, 3496); cited from earlier work
M109 lung carcinoma [10] = settings: 60 mg/kg per injection, highest dosage level, ip q4d × 3; different experiment; cited from earlier work
[11] = tested on: M5076 reticulum cell sarcoma; settings: compared with compound III or BCNU; cited from earlier work
[12] = chloroethylating agent with no carbamoylating activity; cited from earlier work
[13] = iv every fourth day × 3 (same treatment schedule as MeCCNU)
[14] = 16 mg/kg per injection, iv every fourth day × 3

In the case of O=NN(CCCl)C(=O)NCCCl [BCNU, 1,3-bis(2-chloroethyl)-1-nitrosourea], the “inhibition of glutathione reductase (in words)” value (glutathione reductase) is given as “inhibit glutathione reductase”, the “inactivation by denitrosation (in words)” value (liver microsomal enzymes) is given as “inactivated by denitrosation by liver microsomal enzymes” and the “inhibition of thioredoxin reductase (in words)” value (thioredoxin reductase) is given as “inhibit glutathione reductase, ribonucleotide reductase and thioredoxin reductase”. The “glutathione-dependent denitrosation (in words)” value [1] was “undergo glutathione-dependent denitrosation”, the “glutathione-dependent denitrosation (in words)” value [2] was “undergo glutathione-dependent denitrosation” and the T-C [3] was 11.8 days. For the same compound, the “log10 cell kill (LCK)” value [3] was 1.3 LCK, the “inhibition of ribonucleotide reductase (in words)” value (ribonucleotide reductase) was “inhibit glutathione reductase, ribonucleotide reductase” and the “%T/C” value [4, 13] was greater than 157%. For the same compound, the T-C [4, 13] was greater than 62 days and the cures [4, 13] was 2 out of 8.

For O=NN(CCCl)C(=O)NC1CCCCC1 [CCNU, 1-(2-chloroethyl)-3-cyclohexyl-1-nitrosourea], the “denitrosation (in words)” value [5] is given as “catalyzed by NADPH:cytochrome P450 reductase”.

For CNC(=O)ON(C(C)=O)C(=O)NC [Caracemide], the “antitumor activity (in words)” value [6] is given as “active” and the “antitumor activity (in words)” value [7] is given as “active”.

In the case of CNC(=O)N(N(CCCl)S(C)(=O)=O)S(C)(=O)=O [Compound IV, 1,2-Bis(methylsulfonyl)-1-(2-chloroethyl)-2-methylaminocarbonylhydrazine], the “Av. Wt. Change %” value ([8]; 5 mg/kg ip once daily × 6) is reported as “+9.9%”, the “body weight loss (in words)” value ([8]; 5 mg/kg × 6) is reported as “no body weight loss” and the “Av. Wt. Change %” value ([8]; 10 mg/kg ip once daily × 6) is reported as -5.6%. The “Av. Wt. Change %” value ([8]; 15 mg/kg ip once daily × 6) was -2.1%, the “loss of body weight” value ([8]; 10 and 15 mg/kg × 6) was less than 6% and the T-C (B16F10 melanoma; experiment a, 10 mg/kg/injection, qd × 6 from day 10, ip) was 5.0 days. The “T-C, growth delay” value (B16F10 melanoma; experiment a, 20 mg/kg/injection, qd × 6 from day 10, ip) was 15.5 days, the T-C (B16F10 melanoma; experiment b, 20 mg/kg/injection, qd × 6 from day 12, ip) was 10.0 days and the “T-C, growth delay” value (B16F10 melanoma; experiment b, 30 mg/kg/injection, qd × 6 from day 12, ip) was 25.5 days. For the same compound, the “% 60 Day Survivors (cures)” value (L1210 leukemia; 5 mg/kg ip once daily × 6) was 40%, the “%T/C (average survival time treated/control × 100)” value (L1210 leukemia; 5 mg/kg ip once daily × 6, cures not included) was 234% and the “% 60 Day Survivors (cures)” value (L1210 leukemia; 10 mg/kg ip once daily × 6) was 100%. For the same compound, the “% 60 Day Survivors (cures)” value (L1210 leukemia; 15 mg/kg ip once daily × 6) was 100% and the “antileukemic activity / therapeutic potential (in words)” value (L1210 leukemia; qualitative, L1210 leukemia in mice) was “much better therapeutic potential than the amino acid ester derivatives”.

In the case of CC1CCC(NC(=O)N(CCCl)N=O)CC1 (centres unmarked) [MeCCNU, 1-(2-Chloroethyl)-3-(4-methylcyclohexyl)-1-nitrosourea], the “delay in tumor growth (T-C)” value [4, 14] is reported as 33.5 days and the “maximum %T/C” value [4, 14] is reported as 128%.

In the case of CC(=O)N(N(CCCl)S(C)(=O)=O)S(C)(=O)=O [X], the “maximum %T/C” value (M109 lung carcinoma [9]) is given as 136%, the “maximum T-C value” (M109 lung carcinoma [9]) is given as 14.5 days and the “%T/C (median survival time)” value (M109 lung carcinoma [10]) is given as 231%. The “activity against M5076 (in words)” value [11] was “much less active than compound III or BCNU”.

In the case of CS(=O)(=O)CS(=O)(=O)OCCCl [clomesone], the “antineoplastic activity (in words)” value [12] is listed as “excellent antineoplastic activity”.
